According to patent EP0942896B1, “SUBSTITUTED PHENOLS AND THIOPHENOLS USEFUL AS ANTIOXIDANT AGENTS” (Aventis Pharmaceuticals Inc., priority 1996, dated 1998):

Experiments:
[1] = test system: oxidation of serum lipids; experiment: TBARS assay on serum of treated rats (CuSO4-initiated oxidation); type: in vivo, Male Sprague-Dawley rats; details: % of control; thiobarbituric acid reactive substances as nmoles MDA, rat serum; diet 0.3%, 4 days; N = 5
Source text: (§1) A typical experiment consists of 4-6 groups of rats (N = 5 per group) with I group being a control which receives no MDL compound and the other groups being treated with 0.3% MDL compound. Some of the compounds are either repeated at 0.3% or evaluated again at the lower dose of 0.1%. House Male Sprague-Dawley rats, 50-100 g, (Harlan Laboratories, Indianapolis, IN) in groups of 5, feeding ad libitum water and Purina Rodent chow (#5002) with or without MDL compound as a dietary admixture for 4 days. Make dietary admixtures (0.3%) by mixing 1.2 grams of an MDL compound with 400 grams of Purina rodent chow (#5002). Mix the MDL compound with approximately 50 grams of food using a mortar and pestle. This is added to the remainder of the food and mixed for 3 hours on a rotary mixer. In the morning of day 5, anesthetize non-fasted rats with carbon dioxide, and collect blood by cardiac puncture. Sacrifice rats by cervical dislocation. Record body weights and liver weights in grams. Record food consumption as grams • day^-1 • rat^-1. Deaths are recorded as mortality. Use aliquots of fresh serum for clinical chemistries, thiobarbituric acid reactive substances (TBARS) and conjugated diene measurements. Freeze aliquots of serum (∼ 0.5mL) and whole livers at -20°C for compound and metabolite concentration determination at a later time.
In this assay the oxidation of serum lipids is initiated with CuSO4, resulting in the formation of aldehydes, such as malondialdehyde (MDA). Upon incubation with thiobarbituric acid, the absorbance of the aldehydes can be detected at 530-540 nm. As stated in the previous example, TBARS values which are lower than control serum values indicate the relative ability of a test compound to inhibit the oxidation of lipids in a sample. Measure TBARS as follows: mix 100µL of serum with 400µL of a 5mmol CuSO4 solution and incubate at 37°C for 3 hr. Stop the reactions by addition of 1.0mL of 20% trichloroacetic acid. Then add 1.0mL of 0.67% thiobarbituric acid in 0.05 N sodium hydroxide, mix, and incubate the samples for 30 min at 90°C. Centrifuge samples briefly to pellet undissolved material, and transfer the supernatants to a 96-well microtiter plate. Measure absorbances at 540 nm using a Biotek model EL311 microplate reader. The nmoles of MDA produced are calculated from a standard curve of 0 to 10 nmoles of MDA prepared from malonaldehyde bis(dimethylacetal). Serum samples from treated rats are compared to serum samples from control rats that received no MDL compound.

[2] = Animal parameters (food, body weight, liver weight/body weight, mortality) in rats; type: in vivo; details: 4 days; for food / lw/bw / body wt.: % of control, diet 0.3%, N = 5; for food: grams eaten per day per rat; for lw/bw: liver weight/body weight; for lw/bw / body wt. / mortality: rat; for body wt.: weight in grams; for mortality: male, Sprague-Dawley, in vivo
Source text: as §1

oxidation of lipids = experiment: Conjugated diene lag phase determination on pooled serum of treated rats; type: in vivo, Male Sprague-Dawley rats; details: not normalized, mean of 2 determinations of pooled rat serum (N = 5), diet 0.3%, 4 days
Source text: as §1
Conjugated diene lag phase is another indicator of the oxidation of lipids. Lipids exposed to Cu^++ form conjugated dienes that absorb ultraviolet light in the range of 230 to 235 nm. The lag phase of diene formation gives an indication of the amount of oxidation of the lipids. A lag phase longer than control samples indicate inhibition of the oxidation. Determine conjugated diene lay phase using a Varian DMS200 spectrophotometer (fitted with a constant temperature, 5 cuvette sample changer) at 30°C. Add twenty (20) µL of pooled serum to cuvettes containing 3.0mL phosphate buffered saline, pH 7.5, and mix. Measure the absorbances of all cuvettes and set the instrument baseline to zero using the lowest absorbing sample. Next, add 100µL of 1 mmol CuSO4 and mix immediately. Record the absorbance of each cuvette at 2 min intervals for a period of 840 min. Capture the data and transfer to a Microsoft EXCEL® spreadsheet where the curves are smoothed and differentials obtained. Determine lag times mathematically as minutes. Pool serum samples (N = 5); data presented are the mean values of 2 determinations. Compare serum samples from treated rats to serum samples from control rats that received no MDL compound.

ICAM-1 = experiment: Inhibition of ICAM-1 expression in proliferating human umbilical vein endothelial cells (cell ELISA); type: cell-based; details: HUVEC, coincubated with tumor necrosis factor-alpha about 20 to 24 hr, average of two runs, read-out: ICAM-1 (% inh. 50 µM)
Description: Plate proliferating human umbilical vein endothelial cells (HUVEC) or human aortic smooth muscle cells (HASMC) from Clonetics (San Diego, CA) onto 96-well plates in 100 µL medium per well at 20,000 cells per cm^2. Maintain the cultures in growth medium (EGM or SMGM2, Clonetics, San Diego, CA) for two days prior to addition of cytokines or drugs. Add cytokines plus or minus compounds for 20 to 24 hours prior to analysis for adhesion molecule levels. Add tumor necrosis factor (Genzyme, Cambridge, MA) to cultures at 500-1000 units/mL to stimulate ICAM-1 expression. Add interleukin-4 (GIBCO-BRL, Gaithersburg, MD) to cultures at 100-200 pg/mL to stimulate VCAM-1 expression. […] Remove the culture medium, and wash the monolayers twice with Hanks buffered saline solution (HBSS) at room temperature. Add the primary antibody (anti-human VCAM-1 from Upstate Biotechnology, Inc., Lake Placid, NY or anti-human ICAM-1 from Immunotech, Inc., Westbrook, ME) to each well (1 µg/mL in HBSS plus 5% newborn calf serum, GIBCO-BRL, Gaithersburg, MD) and incubate at 37°C for 1 hr. Wash the wells twice with HBSS, then add 100 µL of a 1/1000 dilution of goat anti-mouse IgG conjugated to horse radish peroxidase (BioRad, Hercules, CA) in HBSS plus 5% newborn calf serum to each well and incubated for 1 hr at 37°C. Wash the wells three times with HBSS, then add 100 µL of TMB substrate (BioRad, Hercules, CA) to each well. Stop the reaction after blue color develops by addition of 50 µL of IN H2SO4. Measure absorbance at 450 nm with a plate reader. […] In these experiments, the cells were coincubated with tumor necrosis factor-alpha along with the indicated compounds about 20 to 24 hr before assaying cell surface adhesion molecule expression.

VCAM-1 = experiment: Inhibition of VCAM-1 expression in proliferating human umbilical vein endothelial cells (cell ELISA); type: cell-based; details: HUVEC, coincubated with tumor necrosis factor-alpha about 20 to 24 hr, average of three runs, numbers in parentheses represent negative values, read-out: VCAM-1 (% inh. 50 µM)
Description: Plate proliferating human umbilical vein endothelial cells (HUVEC) or human aortic smooth muscle cells (HASMC) from Clonetics (San Diego, CA) onto 96-well plates in 100 µL medium per well at 20,000 cells per cm^2. Maintain the cultures in growth medium (EGM or SMGM2, Clonetics, San Diego, CA) for two days prior to addition of cytokines or drugs. Add cytokines plus or minus compounds for 20 to 24 hours prior to analysis for adhesion molecule levels. Add tumor necrosis factor (Genzyme, Cambridge, MA) to cultures at 500-1000 units/mL to stimulate ICAM-1 expression. Add interleukin-4 (GIBCO-BRL, Gaithersburg, MD) to cultures at 100-200 pg/mL to stimulate VCAM-1 expression. […] Remove the culture medium, and wash the monolayers twice with Hanks buffered saline solution (HBSS) at room temperature. Add the primary antibody (anti-human VCAM-1 from Upstate Biotechnology, Inc., Lake Placid, NY or anti-human ICAM-1 from Immunotech, Inc., Westbrook, ME) to each well (1 µg/mL in HBSS plus 5% newborn calf serum, GIBCO-BRL, Gaithersburg, MD) and incubate at 37°C for 1 hr. Wash the wells twice with HBSS, then add 100 µL of a 1/1000 dilution of goat anti-mouse IgG conjugated to horse radish peroxidase (BioRad, Hercules, CA) in HBSS plus 5% newborn calf serum to each well and incubated for 1 hr at 37°C. […] Measure absorbance at 450 nm with a plate reader. […]

| Compound | TBARS [1] [%] | food [2] [%] | lw/bw [2] [%] | body wt. [2] [%] | mortality [2] [%] | CONJ. DIENE (oxidation of lipids) [min] | inhibition at 50 µM (ICAM-1) [%] | inhibition at 50 µM (VCAM-1) [%] |
| --- | --- | --- | --- | --- | --- | --- | --- | --- |
| CC(C)=CCC[C@H](C)CCOc1cc(C(C)(C)C)c(O)c(C(C)(C)C)c1 [MDL 103,294, Phenol, 2,6-bis(1,1-dimethylethyl)-4-[(3,7-dimethyl-6-octenyl)oxy]-, (S)-] | 18 | 108 | 129 | 101 | 0 | – | – | – |
| CC(C)=CCCC(C)CCSc1cc(C(C)(C)C)c(O)c(C(C)(C)C)c1 (stereo not drawn) [MDL 103,960, Phenol, 2,6-bis(1,1-dimethylethyl)-4-[(3,7-dimethyl-6-octenyl)thio]-] | 24 | 105 | 130 | 100 | 0 | 363 | 9.5 | 25.7 |
| CC(C)CCCC(C)CCOc1ccc(O)c(C(C)(C)C)c1 (stereo not drawn) [MDL 104,191, Phenol, 2-(1,1-dimethylethyl)-4-[(3,7-dimethyloctyl)oxy]-] | 20 | 76 | 126 | 92 | 0 | 708 | 70.5 | 34.3 |
| CC(C)=CCC[C@@H](C)CCOc1cc(C(C)(C)C)c(O)c(C(C)(C)C)c1 [MDL 104,535, Phenol, 2,6-bis(1,1-dimethylethyl)-4-[(3,7-dimethyl-6-octenyl)oxy]-,(R)-] | 11 | 95 | 119 | 102 | 0 | – | 11.5 | – |
